Measured values taken from PubChem BioAssay (NCI).
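Cells were grown in 96-well plates and exposed to each compound for 48 hours at five concentrations; endpoints were interpolated linearly between bracketing concentrations, or set to the highest concentration if not reached. The concentration for 50% growth inhibition is given as GI50. At the TGI there is no net growth.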

Columns and labels:
Experiment in all cases: inhibition of tumour cell growth, NCI panel, 48 h
MALME-3M melanoma = test system: MALME-3M melanoma
HCT-15 colon = test system: HCT-15 colon
NCI-H226 lung = test system: NCI-H226 lung
DU-145 prostate = test system: DU-145 prostate
COLO 205 colon = test system: COLO 205 colon
CCRF-CEM leukemia = test system: CCRF-CEM leukemia
U251 CNS = test system: U251 CNS
SN12C renal = test system: SN12C renal
PC-3 prostate = test system: PC-3 prostate
KM12 colon = test system: KM12 colon

| Structure (SMILES) | TGI (MALME-3M melanoma) | GI50 (HCT-15 colon) | TGI (HCT-15 colon) | GI50 (NCI-H226 lung) | TGI (NCI-H226 lung) | GI50 (DU-145 prostate) | TGI (DU-145 prostate) | GI50 (COLO 205 colon) | TGI (COLO 205 colon) | GI50 (CCRF-CEM leukemia) | TGI (CCRF-CEM leukemia) | GI50 (U251 CNS) | TGI (U251 CNS) | GI50 (SN12C renal) | TGI (SN12C renal) | GI50 (PC-3 prostate) | TGI (PC-3 prostate) | GI50 (KM12 colon) | TGI (KM12 colon) | GI50 (MALME-3M melanoma) |
| --- | --- | --- | --- | --- | --- | --- | --- | --- | --- | --- | --- | --- | --- | --- | --- | --- | --- | --- | --- | --- |
| CCn1cc(/C=C2\Oc3cc(OCC#N)ccc3C2=O)c2cc(OC)ccc21 | > 70.7 µM | 0.153 µM | > 100 µM | 6.65 µM | > 44.3 µM | 0.44 µM | > 62 µM | 0.348 µM | 4.12 µM | 0.113 µM | > 100 µM | 0.425 µM | > 48.7 µM | 0.711 µM | > 100 µM | 0.218 µM | 53.8 µM | 0.546 µM | > 100 µM |  |
| CN(C)N1C(=O)SCC(c2ccccc2)(c2ccccc2)C1=O | > 100 µM |  | > 100 µM |  | > 100 µM |  | > 100 µM |  | > 100 µM |  | > 100 µM |  | > 100 µM |  | > 100 µM |  | > 100 µM |  | > 100 µM |  |
| COc1cc(OCc2cccc(-c3ccccc3)c2C)cc(OC)c1CN1CCCCC1C(=O)NCCOCCOCCN (stereo not drawn) | 3.05 µM | 3.09 µM | 11.1 µM | 14.7 µM | 30.9 µM | 4.61 µM | 16.1 µM | 1.82 µM | 3.7 µM | 2.68 µM | 8.9 µM | 2.1 µM | 4.44 µM | 2.47 µM | 7.01 µM | 2.76 µM | 11.6 µM | 3.2 µM | 11.4 µM | 1.55 µM |
| NC(=O)c1cccnc1 | > 100 µM | > 100 µM | > 100 µM | > 100 µM | > 100 µM | > 100 µM | > 100 µM | > 100 µM | > 100 µM | 5.99 µM | > 100 µM | > 100 µM | > 100 µM | > 100 µM | > 100 µM | > 100 µM | > 100 µM | > 100 µM | > 100 µM | > 100 µM |
| Nc1nc(N)c2cc(Sc3ccc4ccccc4c3)ccc2n1 | 2.86 µM |  | 2.55 µM |  | 18.1 µM |  | 6.01 µM |  | 2.91 µM |  | 4.83 µM |  | 3.38 µM |  | 8.93 µM |  | 6.12 µM |  | 3.25 µM | 1.29 µM |
| COc1ccc(-c2nc(-c3nc4cc(Cl)c(F)cc4[nH]3)c3ccccn23)cc1 | > 100 µM | 5.72 µM | > 100 µM | 14.5 µM | > 100 µM | 6.58 µM | > 100 µM | 7.1 µM | > 100 µM | 3.91 µM | > 100 µM | 6.67 µM | > 100 µM | 11.2 µM | > 100 µM | 4.58 µM | > 100 µM | 4.56 µM | > 100 µM | 20 µM |
| CCCN(CCC)c1ccc(C=O)c(Cl)c1 | > 69 µM | 24 µM | > 100 µM | 0.152 µM | 0.322 µM | 48 µM | > 100 µM | 4.2 µM | 17 µM | 35.5 µM | > 100 µM | 6.6 µM | 29.9 µM | 28.1 µM | > 100 µM | 29.1 µM | > 100 µM | 28.6 µM | > 83.6 µM | 23.4 µM |
| Nc1c(C(=O)c2cccc(C#CCN3CCCCC3)c2)cnn1-c1ccc(F)cc1 | > 25 µM | > 22.5 µM | > 25 µM | > 23.4 µM | > 25 µM | > 25 µM | > 25 µM | 24.9 µM | > 25 µM | > 25 µM | > 25 µM | > 25 µM | > 25 µM | 24.4 µM | > 25 µM | > 25 µM | > 25 µM | 18.7 µM | > 25 µM | > 25 µM |
| COc1ccc(C(=O)c2sc3nc(-c4ccccc4OC)ccc3c2N)cc1OC | > 100 µM | 6.13 µM | > 100 µM | 5.13 µM | > 100 µM | 27.9 µM | > 100 µM | 8.9 µM | > 100 µM | 4.07 µM | > 100 µM | 14.2 µM | > 100 µM | 7.95 µM | > 100 µM | 2.84 µM | 35.1 µM | 9.67 µM | > 100 µM | 3.65 µM |
| CCCCCCCCCc1ccc(OCCOCCOCCOCCOCCOCCOCCOCCOCCO)cc1 | 1.63 µM | 0.761 µM | 1.84 µM | 0.561 µM | 1.77 µM | 1.24 µM | 4.65 µM | 0.243 µM | 0.829 µM | 0.305 µM | 2.04 µM | 0.458 µM | 1.25 µM | 0.61 µM | 1.59 µM | 0.0898 µM | 1.18 µM | 0.598 µM | 4.02 µM | 0.646 µM |
| O=C(NN1C(=O)CSC1c1cccc(Cl)c1)C(O)c1ccccc1 (stereo not drawn) | > 100 µM | 68.6 µM | > 100 µM | 81 µM | > 100 µM | 83.4 µM | > 100 µM | > 100 µM | > 100 µM | > 100 µM | > 100 µM | 59.2 µM | > 100 µM | > 100 µM | > 100 µM | 60.6 µM | > 100 µM | 90.4 µM | > 100 µM | > 100 µM |
| CC(=O)c1ccc2c(c1)N(CCCN1CCN(CCO)CC1)c1ccccc1S2 | 3.62 µM | 1.99 µM | 5.01 µM | 7.14 µM | 27.9 µM | 4.55 µM | 15.8 µM | 1.74 µM | 3.5 µM | 1.68 µM | 5.53 µM | 1.94 µM | 4.06 µM | 3.88 µM | 17 µM | 2.4 µM | 9.35 µM | 1.97 µM | 4.04 µM | 1.75 µM |
| CCSc1ccc([C@@H]2[C@@H](O)C(=O)N2c2cc(OC)c(OC)c(OC)c2)cc1 | 50.4 µM | < 0.0109 µM | > 44.3 µM | 0.521 µM | 33.7 µM | 0.0252 µM | > 50.3 µM | 0.0163 µM | 0.072 µM | < 0.0171 µM | > 100 µM | < 0.0144 µM | 16 µM | 0.0441 µM | 22.2 µM | 0.0146 µM | 79.7 µM | < 0.0133 µM | 33.7 µM | 15.8 µM |
| CCOC(=O)c1ccc(NC(=O)NC2=NCCS2)cc1 | > 100 µM | 8.54 µM | > 100 µM | 3.14 µM | > 100 µM | 1.71 µM | > 100 µM | 40.8 µM | > 100 µM | 0.433 µM | > 100 µM | 0.899 µM | > 100 µM | 0.954 µM | > 100 µM | 0.451 µM | > 100 µM | 0.434 µM | > 100 µM | 0.465 µM |
| C=C1C(=O)O[C@H]2[C@H]1CC/C(Cn1cc(-c3ccc(N)cc3)nn1)=C\CC[C@@]1(C)O[C@@H]21 | 5.42 µM | 1.42 µM | 3.37 µM | 3.34 µM | 13.2 µM | 3.65 µM | 14.1 µM | 1.79 µM | 4.05 µM | 2 µM | 20.3 µM | 4.16 µM | 16.5 µM | 3.48 µM | 15.1 µM | 10.1 µM | 24.6 µM | 11.4 µM | 26.9 µM | 2.18 µM |
| Clc1ccc(/C=C/c2ccc3ccccc3n2)cc1 | 71.8 µM | 2.08 µM | > 100 µM | 25 µM | > 100 µM | 2.23 µM | 5.41 µM | 1.46 µM | 6.73 µM | 0.508 µM | > 100 µM | 0.441 µM | > 100 µM | 2.06 µM | > 100 µM | 1.74 µM | > 100 µM | 1.42 µM | 20.6 µM | 0.934 µM |
| COc1cccc(CNc2ncnc3c2ncn3C2OC(CO)C(O)C2O)c1O (stereo not drawn) | 4.38 µM | 0.138 µM | > 100 µM |  | > 100 µM | 0.0733 µM | 1.22 µM | 0.702 µM | 31.1 µM |  | > 100 µM | 0.522 µM | > 100 µM | 0.045 µM | > 100 µM | 0.179 µM | > 100 µM | 12.9 µM | > 100 µM | 0.259 µM |
| c1ccc(-c2nc3n(c2-c2ccc4c(c2)OCO4)CCC3)nc1 | > 23.4 µM | 0.766 µM | > 25 µM | 4.54 µM | 17 µM | 7.22 µM | > 25 µM | 9.15 µM | > 25 µM | 7.63 µM | > 25 µM | 6.96 µM | > 25 µM | 7.56 µM | > 25 µM | 6.75 µM | > 25 µM | 5.9 µM | > 25 µM | 8.19 µM |
